Test results from PubChem BioAssay AID1996.
≈ marks a conversion by molar mass, not a printed value.

Settings: buffer; pH 7.4; 200.0 µM
Molecule `O=C(NCC(c1ccco1)N1CCOCC1)c1ccc(Cl)cc1` (stereo not given) has a solubility kinetic greater than 50.2 µg/mL.
With `CC1CCCCC12NC(=O)N(CC(=O)NCc1ccccc1)C2=O` (stereo not given) the solubility kinetic was greater than 49.4 µg/mL.
For `Nc1ncnc(Oc2cccc3cccnc23)c1[N+](=O)[O-]`, the solubility kinetic was 33.8 µg/mL (≈ 119 µM).
For `CCCC(C)NC(=O)CN1C(=O)c2cccc3cccc1c23` (stereo not given), the solubility kinetic was 8.3 µg/mL (≈ 28 µM).
With `Cc1cccc(CC(=O)Nc2cccnc2)c1` the solubility kinetic was 31 µg/mL (≈ 137 µM).
For `COCC(=O)NC1CCCCCC1`, the solubility kinetic was greater than 27.8 µg/mL.
`O=C(Nc1ccc(CN2CCS(=O)(=O)CC2)cc1)c1ccccc1` gave a solubility kinetic of 31.4 µg/mL (≈ 91.2 µM).
With `C[C@@H](C(=O)OCC(=O)c1ccccc1)N1C(=O)C2CCCCC2C1=O` (stereo not given in full) the solubility kinetic was greater than 51.5 µg/mL.
`CC1(C)CC(NC(=S)Nc2ccc([N+](=O)[O-])cc2)CC(C)(C)N1` gave a solubility kinetic of 42.1 µg/mL (≈ 125 µM).
Molecule `Cc1cc(C)c(C(=O)Nc2ccc(C)c(C)c2)c(CC(C)(C)C(=O)O)c1` has a solubility kinetic greater than 53 µg/mL.
Molecule `Nc1cc(=O)[nH]c(SCC(=O)Nc2cccc(S(=O)(=O)N3CCCCC3)c2)n1` has a solubility kinetic greater than 63.5 µg/mL.
With `COc1ccc(-c2cc(C(=O)N3CCCCC3)c3ccccc3n2)cc1OC` the solubility kinetic was 51.6 µg/mL (≈ 137 µM).
`CC(C)COc1ccc(CNC(=S)Nc2ccccc2)cc1Cl` showed a solubility kinetic of less than 0.4 µg/mL.
`C=CCC1(/C=N/O)CCOC(C)(C)C1` (stereo not given) showed a solubility kinetic greater than 29.6 µg/mL.
`O=C(NCC1CCCO1)c1ccc(NC(=O)c2cccc(Cl)c2)cc1` (stereo not given) showed a solubility kinetic of 2.5 µg/mL (≈ 6.97 µM).
For `CS(=O)(=O)Nc1ccc2c(c1)OCC(=O)N2Cc1ccccc1`, the solubility kinetic was 42.4 µg/mL (≈ 128 µM).
Molecule `COc1cccc(NC(=O)C2(S(=O)(=O)c3ccc(Cl)cc3)CC2)c1` has a solubility kinetic of 33.1 µg/mL (≈ 90.5 µM).
For `Cc1cc(=O)oc(C)c1C(=O)NC1CCCCCCC1`, the solubility kinetic was 11.8 µg/mL (≈ 42.5 µM).
`CC(=O)c1ccc(OCCCC(=O)Nc2cccc(S(=O)(=O)N3CCOCC3)c2)cc1` showed a solubility kinetic of 56 µg/mL (≈ 125 µM).
For `Cc1c(C(=O)NCc2ccco2)oc2ccccc12`, the solubility kinetic was 6.3 µg/mL (≈ 24.7 µM).
In the case of `Cc1nc(Cl)sc1C(=O)Nc1cccc(Cl)c1`, the solubility kinetic is reported as 34.8 µg/mL (≈ 121 µM).
In the case of `O=C(Nc1ccc(Cl)cc1)C1C2CCCCC21` (stereo not given), the solubility kinetic is reported as less than 0.5 µg/mL.
`O=C(Cc1ccc(Cl)c(Cl)c1)NC1CCCCCC1` showed a solubility kinetic of 3.2 µg/mL (≈ 10.7 µM).
`CCCN1CCC(NC(=S)Nc2ccc(OC)c(OC)c2)CC1` showed a solubility kinetic greater than 50.6 µg/mL.
In the case of `NC(=O)c1ccc(CN2CCc3ccccc3C2)cc1`, the solubility kinetic is reported as 34.5 µg/mL (≈ 130 µM).
With `COc1ccc(Nc2c(-c3ccco3)nc3cccc(C)n23)cc1` the solubility kinetic was 1.2 µg/mL (≈ 3.76 µM).
`O=C(CCC(=O)OCC(=O)c1cccc([N+](=O)[O-])c1)NC1CCCCC1` showed a solubility kinetic greater than 54.4 µg/mL.
`CC1SCC(NC(=O)c2ccc(Cl)cc2)CS1` (stereo not given) gave a solubility kinetic of 39.2 µg/mL (≈ 136 µM).
For `O=c1cc(C(F)(F)F)nc(-c2ccccc2OC(F)(F)F)[nH]1`, the solubility kinetic was greater than 48.6 µg/mL.
With `Cc1cc(F)ccc1NC(=O)Cn1c(C)csc1=O` the solubility kinetic was greater than 42 µg/mL.
In the case of `C/C(=N/NC(=O)CNC(=O)c1ccco1)c1ccco1`, the solubility kinetic is reported as greater than 41.3 µg/mL.
Molecule `N#Cc1cccc(S(=O)(=O)NCc2nnc3ccccn23)c1` has a solubility kinetic greater than 47 µg/mL.
`COCC(C)NC(C(=O)Nc1cccc(C(C)=O)c1)c1ccccc1` (stereo not given) gave a solubility kinetic greater than 51.1 µg/mL.
`C=CCNC(=O)COC(=O)c1nc2nccc(C)n2n1` showed a solubility kinetic greater than 41.3 µg/mL.
With `COc1ccc(Cn2cnc([N+](=O)[O-])c2)cc1[N+](=O)[O-]` the solubility kinetic was greater than 41.7 µg/mL.
`COc1ccc(N2CC(C(=O)N3CCCC(C)C3)CC2=O)cc1` (stereo not given) gave a solubility kinetic greater than 47.5 µg/mL.
`CCOC(=O)c1cc(S(=O)(=O)NC2CCCCC2)cn1C` showed a solubility kinetic of 43.9 µg/mL (≈ 140 µM).
For `NC(=O)c1cc(-c2ccncc2)nc2ccc(Cl)cc12`, the solubility kinetic was 37 µg/mL (≈ 130 µM).
`CCOC(=O)C(=O)N1CCN(c2ccccc2OC)CC1` gave a solubility kinetic greater than 43.9 µg/mL.
Molecule `Cc1onc(-c2ccccc2)c1C(=O)NCc1ccc(Cl)cc1` has a solubility kinetic of 1.3 µg/mL (≈ 3.98 µM).
For `CCC(C(=O)O)N1C(=O)C2CCCCC2C1=O` (stereo not given), the solubility kinetic was greater than 35.9 µg/mL.
`Cc1cccn2c(=O)c(C=O)c(N3CCN(C)CC3)nc12` gave a solubility kinetic greater than 42.9 µg/mL.
Work on `O=C1COc2ccc(S(=O)(=O)N3CCc4ccccc43)cc2N1` yielded a solubility kinetic of 2.4 µg/mL (≈ 7.26 µM).
With `Cc1cc(NC(=O)COC(=O)c2cnccn2)ccc1Br` the solubility kinetic was greater than 52.5 µg/mL.
`O=C(O)c1ccccc1NC(=O)C1C2CCC(O2)C1C(=O)O` (stereo not given) showed a solubility kinetic greater than 45.8 µg/mL.
Work on `COc1ccc(C(=O)Nc2ccc(NC(=O)C3CC3)nc2)cc1` yielded a solubility kinetic of 1.7 µg/mL (≈ 5.46 µM).
For `CC1=NN(C(=O)CCc2ccccc2)C(O)(c2ccncc2)C1` (stereo not given), the solubility kinetic was greater than 46.4 µg/mL.
`O=C1C2C3C=CC(CC3)C2C(=O)N1/N=C/c1ccco1` (stereo not given) gave a solubility kinetic greater than 40.5 µg/mL.
`Cc1nc(-c2ccc([N+](=O)[O-])cc2)nc2[nH]ccc(=O)c12` showed a solubility kinetic of 0.9 µg/mL (≈ 3.19 µM).
Molecule `Cc1ccc(Sc2ncccc2C(N)=O)cc1` has a solubility kinetic greater than 36.6 µg/mL.
`CCOP(=O)(Cc1ccc(C#N)o1)OCC` showed a solubility kinetic greater than 36.5 µg/mL.
With `O=C(CSCc1ccc(Br)cc1)NC1CC1` the solubility kinetic was 38.7 µg/mL (≈ 129 µM).
Work on `C#CCN1CCN(c2ccc(F)cc2)CC1` yielded a solubility kinetic of 30 µg/mL (≈ 137 µM).
`CNC(=S)Nc1cccc(-c2cnc3ccccc3n2)c1` showed a solubility kinetic of 43.7 µg/mL (≈ 148 µM).
In the case of `Cc1ccc(S(=O)(=O)NC23CC4CC(CC(C4)C2)C3)cc1`, the solubility kinetic is reported as 2.4 µg/mL (≈ 7.86 µM).
`S=C(Nc1ccccc1)Nc1ccccc1Br` showed a solubility kinetic of 16.4 µg/mL (≈ 53.4 µM).
`CCOC(=O)c1cnc(COc2ccccc2Cl)[nH]c1=O` gave a solubility kinetic greater than 46.3 µg/mL.
For `CCOc1ccc(C(=O)OC(C)C(=O)N2CCN(Cc3ccccc3)CC2)cc1` (stereo not given), the solubility kinetic was greater than 59.5 µg/mL.
Molecule `COc1ccc(C(=O)NCCN2CCCC2)cc1[N+](=O)[O-]` has a solubility kinetic greater than 44 µg/mL.
Molecule `C=CCN=C1S/C(=C\N(C)C)C(=O)N1S(=O)(=O)c1ccc(C)cc1` has a solubility kinetic of 2.8 µg/mL (≈ 7.66 µM).
